Laboratory results as given in PMC11876601 (Molecular Systems Biology, 2025).
“And” between values parts separate entries of the source, which are not always exact repeats. Identical values can stand only once. Like-named read-outs stand apart in the source and are kept apart here.

Test system: AsPC-1 cells
Test: Cell proliferation assay, chemodrug + ATR inhibitor (Incucyte confluence, 72 h);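 also: underlying read-out for every value is AsPC-1 confluence after 72 h incubation at 37 °C and 5% CO2, divided by that well's starting confluence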
Conditions: for Curve bottom / Curve slope / Curve top / EC50 / pEC50: AsPC-1; for Ratio: Response / Response vehicle (mean)
[1] = Experiment GEM (no ATRi), single replicates R1-R3
[2] = Experiment GEM+ATRi_dose1, single replicates R1-R3
[3] = Experiment GEM+ATRi_dose2, single replicates R1-R3
[4] = Experiment GEM+ATRi_dose3, single replicates R1-R3
[5] = Drug 0 nM + ATRi 3 nM (ATRi alone, GEM+ATRi_dose1 series), replicates R1-R3
[6] = Drug 0 nM + ATRi 10 nM (ATRi alone, GEM+ATRi_dose2 series), replicates R1-R3
[7] = Drug 0 nM + ATRi 30 nM (ATRi alone, GEM+ATRi_dose3 series), replicates R1-R3
[8] = Drug 1 nM + ATRi 3 nM (GEM+ATRi_dose1), replicates R1-R3
[9] = Drug 1 nM + ATRi 10 nM (GEM+ATRi_dose2), replicates R1-R3
[10] = Drug 1 nM + ATRi 30 nM (GEM+ATRi_dose3), replicates R1-R3
[11] = Drug 1 nM alone, ATRi 0 nM (experiment 'GEM'), replicates R1-R3
[12] = Drug 3 nM + ATRi 3 nM (GEM+ATRi_dose1), replicates R1-R3
[13] = Drug 3 nM + ATRi 10 nM (GEM+ATRi_dose2), replicates R1-R3
[14] = Drug 3 nM + ATRi 30 nM (GEM+ATRi_dose3), replicates R1-R3
[15] = Drug 3 nM alone, ATRi 0 nM (experiment 'GEM'), replicates R1-R3
[16] = Drug 10 nM + ATRi 3 nM (GEM+ATRi_dose1), replicates R1-R3
[17] = Drug 10 nM + ATRi 10 nM (GEM+ATRi_dose2), replicates R1-R3
[18] = Drug 10 nM + ATRi 30 nM (GEM+ATRi_dose3), replicates R1-R3
[19] = Drug 10 nM alone, ATRi 0 nM (experiment 'GEM'), replicates R1-R3
[20] = Drug 30 nM + ATRi 3 nM (GEM+ATRi_dose1), replicates R1-R3
[21] = Drug 30 nM + ATRi 10 nM (GEM+ATRi_dose2), replicates R1-R3
[22] = Drug 30 nM + ATRi 30 nM (GEM+ATRi_dose3), replicates R1-R3
[23] = Drug 30 nM alone, ATRi 0 nM (experiment 'GEM'), replicates R1-R3
[24] = Drug 100 nM + ATRi 3 nM (GEM+ATRi_dose1), replicates R1-R3
[25] = Drug 100 nM + ATRi 10 nM (GEM+ATRi_dose2), replicates R1-R3
[26] = Drug 100 nM + ATRi 30 nM (GEM+ATRi_dose3), replicates R1-R3
[27] = Drug 100 nM alone, ATRi 0 nM (experiment 'GEM'), replicates R1-R3
[28] = Drug 300 nM + ATRi 3 nM (GEM+ATRi_dose1), replicates R1-R3
[29] = Drug 300 nM + ATRi 10 nM (GEM+ATRi_dose2), replicates R1-R3
[30] = Drug 300 nM + ATRi 30 nM (GEM+ATRi_dose3), replicates R1-R3
[31] = Drug 300 nM alone, ATRi 0 nM (experiment 'GEM'), replicates R1-R3
[32] = Drug 1000 nM + ATRi 3 nM (GEM+ATRi_dose1), replicates R1-R3
[33] = Drug 1000 nM + ATRi 10 nM (GEM+ATRi_dose2), replicates R1-R3
[34] = Drug 1000 nM + ATRi 30 nM (GEM+ATRi_dose3), replicates R1-R3
[35] = Drug 1000 nM alone, ATRi 0 nM (experiment 'GEM'), replicates R1-R3
[36] = Drug 3000 nM + ATRi 3 nM (GEM+ATRi_dose1), replicates R1-R3
[37] = Drug 3000 nM + ATRi 10 nM (GEM+ATRi_dose2), replicates R1-R3
[38] = Drug 3000 nM + ATRi 30 nM (GEM+ATRi_dose3), replicates R1-R3
[39] = Drug 3000 nM alone, ATRi 0 nM (experiment 'GEM'), replicates R1-R3
[40] = chemodrug 30 nM alone (ATRi 0 nM)
[41] = chemodrug 100 nM alone (ATRi 0 nM)
[42] = chemodrug 300 nM alone (ATRi 0 nM)
[43] = chemodrug 1000 nM alone (ATRi 0 nM)
[44] = chemodrug 3000 nM alone (ATRi 0 nM)

Method: Cells were seeded at 5000 cells/well into 96-well flat bottom plates (Eppendorf) and allowed to attach overnight. […] Cells were incubated for 72 h at 37 °C and 5% CO2. Cell confluence readouts at 72 h were either normalized to their initial confluence using the Incucyte software (AsPC-1) or used without prior normalization (all others). […] Each experiment was performed in triplicates, the data was plotted as mean ± standard deviation (s.d.).

For `N.N.[Cl][Pt][Cl]` [Cisplatin], the Curve bottom [1] was 1.04 and 1.01 and 1.00, the Curve slope [1] was 1.30 and 2.18 and 1.82 and the Curve top [1] was 0.20 and 0.35 and 0.27. The EC50 [1] was 513 nM and 218 nM and 302 nM, the pEC50 [1] was 6.29 and 6.66 and 6.52 and the Curve bottom [2] was 1.05 and 1.02 and 1.03. For the same molecule, the Curve slope [2] was 1.41 and 1.64 and 1.76, the Curve top [2] was 0.25 and 0.33 and 0.27 and the EC50 [2] was 172 nM and 118 nM and 151 nM. The pEC50 [2] was 6.76 and 6.93 and 6.82, the Curve bottom [3] was 1.03 and 1.00 and 1.02 and the Curve slope [3] was 1.60 and 1.79 and 1.21. For the same molecule, the Curve top [3] was 0.28 and 0.31 and 0.26, the EC50 [3] was 36.4 nM and 34.9 nM and 37.1 nM and the pEC50 [3] was 7.44 and 7.46 and 7.43. The Curve bottom [4] was 0.90 and 0.95 and 0.88, the Curve slope [4] was 0.65 and 0.81 and 0.69 and the Curve top [4] was 0.22 and 0.29 and 0.23. The EC50 [4] was 6.62 nM and 4.98 nM and 7.67 nM, the pEC50 [4] was 8.18 and 8.30 and 8.12 and the Response [5] was 86.95 and 90.22 and 92.73. For the same molecule, the Response [6] was 86.95 and 90.22, the Response [7] was 75.87 and 84.36 and the Response [8] was 87.64 and 91.58 and 92.37. For the same molecule, the Response [9] was 86.97 and 90.31, the Response [10] was 68.28 and 77.94 and the Response [11] was 87.69 and 92.23. The Response [12] was 91.78 and 94.40 and 93.95, the Response [13] was 85.95 and 90.04 and the Response [14] was 52.30 and 58.04. For the same molecule, the Response [15] was 89.38 and 90.87, the Response [16] was 89.09 and 93.32 and 91.50 and the Response [17] was 81.41 and 84.65. For the same molecule, the Response [18] was 41.30 and 46.95, the Response [19] was 87.15 and 91.05 and the Response [20] was 84.14 and 83.47 and 86.69. The Response [21] was 60.15 and 63.62, the Response [22] was 36.88 and 38.31 and the Response [23] was 87.92 and 89.82. The Response [24] was 67.31 and 66.59 and 71.27, the Response [25] was 33.79 and 36.06 and the Response [26] was 30.17 and 37.05. For the same molecule, the Response [27] was 79.92 and 81.64, the Response [28] was 43.01 and 39.79 and 38.91 and the Response [29] was 30.09 and 31.69. For the same molecule, the Response [30] was 22.83 and 27.53, the Response [31] was 65.38 and 51.74 and the Response [32] was 27.32 and 30.30 and 27.51. The Response [33] was 23.88 and 28.00, the Response [34] was 20.74 and 24.11 and the Response [35] was 37.94 and 32.34. For the same molecule, the Response [36] was 22.35 and 31.11 and 24.18, the Response [37] was 21.92 and 27.23 and 22.65 and the Response [38] was 19.23 and 26.92. For the same molecule, the Response [39] was 23.81 and 32.93, the Ratio [5] was 1.02 and 1.00 and 1.03 and the Ratio [6] was 1.02 and 1.00. The Ratio [7] was 0.89 and 0.93, the Ratio [8] was 1.03 and 1.01 and 1.02 and the Ratio [9] was 1.02 and 1.00. For the same molecule, the Ratio [10] was 0.80 and 0.86, the Ratio [11] was 1.03 and 1.02 and the Ratio [12] was 1.08 and 1.04. The Ratio [13] was 1.01 and 1.00, the Ratio [14] was 0.61 and 0.64 and the Ratio [15] was 1.05 and 1.00. The Ratio [16] was 1.05 and 1.03 and 1.01, the Ratio [17] was 0.96 and 0.94 and the Ratio [18] was 0.49 and 0.52. For the same molecule, the Ratio [19] was 1.02 and 1.01, the Ratio [20] was 0.99 and 0.92 and 0.96 and the Ratio [21] was 0.71 and 0.70. For the same molecule, the Ratio [22] was 0.43 and 0.42, the Ratio [23] was 1.03 and 0.99 and the Ratio [24] was 0.79 and 0.74. The Ratio [25] was 0.40, the Ratio [26] was 0.35 and 0.41 and the Ratio [27] was 0.94 and 0.90. For the same molecule, the Ratio [28] was 0.51 and 0.44 and 0.43, the Ratio [29] was 0.35 and the Ratio [30] was 0.27 and 0.30. The Ratio [31] was 0.77 and 0.57, the Ratio [32] was 0.32 and 0.34 and 0.31 and the Ratio [33] was 0.28 and 0.31. The Ratio [34] was 0.24 and 0.27, the Ratio [35] was 0.45 and 0.36 and the Ratio [36] was 0.26 and 0.34 and 0.27. The Ratio [37] was 0.26 and 0.30 and 0.25, the Ratio [38] was 0.23 and 0.30 and the Ratio [39] was 0.28 and 0.36. For the same molecule, the “Ratio (Response / Response vehicle (mean))” value (chemodrug 1 nM + ATRi 10 nM) was 1.00, the Response (chemodrug 1 nM + ATRi 10 nM) was 89.91 and the “Ratio (Response / Response vehicle (mean))” value (chemodrug 1 nM + ATRi 30 nM) was 0.80. The Response (chemodrug 1 nM + ATRi 30 nM) was 71.79, the “Ratio (Response / Response vehicle (mean))” value (chemodrug 1 nM alone (ATRi 0 nM)) was 1.02 and the “Ratio (Response / Response vehicle (mean))” value (chemodrug 3 nM + ATRi 10 nM) was 0.99. For the same molecule, the Response (chemodrug 3 nM + ATRi 10 nM) was 89.48, the “Ratio (Response / Response vehicle (mean))” value (chemodrug 3 nM + ATRi 30 nM) was 0.63 and the Response (chemodrug 3 nM + ATRi 30 nM) was 57.06. The “Ratio (Response / Response vehicle (mean))” value (chemodrug 3 nM alone (ATRi 0 nM)) was 1.00, the “Ratio (Response / Response vehicle (mean))” value (chemodrug 10 nM + ATRi 10 nM) was 0.89 and the Response (chemodrug 10 nM + ATRi 10 nM) was 80.53. For the same molecule, the “Ratio (Response / Response vehicle (mean))” value (chemodrug 10 nM + ATRi 30 nM) was 0.51, the Response (chemodrug 10 nM + ATRi 30 nM) was 45.87 and the “Ratio (Response / Response vehicle (mean))” value (chemodrug 10 nM alone (ATRi 0 nM)) was 0.99. For the same molecule, the “Ratio (Response / Response vehicle (mean))” value (chemodrug 30 nM + ATRi 10 nM) was 0.69, the Response (chemodrug 30 nM + ATRi 10 nM) was 62.02 and the “Ratio (Response / Response vehicle (mean))” value (chemodrug 30 nM + ATRi 30 nM) was 0.43. For the same molecule, the Response (chemodrug 30 nM + ATRi 30 nM) was 38.92, the “Ratio (Response / Response vehicle (mean))” value [40] was 1.03 and the Response [40] was 92.93. For the same molecule, the “Ratio (Response / Response vehicle (mean))” value (chemodrug 100 nM + ATRi 10 nM) was 0.43, the Response (chemodrug 100 nM + ATRi 10 nM) was 39.16 and the “Ratio (Response / Response vehicle (mean))” value (chemodrug 100 nM + ATRi 30 nM) was 0.35. For the same molecule, the Response (chemodrug 100 nM + ATRi 30 nM) was 31.50, the “Ratio (Response / Response vehicle (mean))” value [41] was 0.90 and the Response [41] was 81.28. The “Ratio (Response / Response vehicle (mean))” value (chemodrug 300 nM + ATRi 10 nM) was 0.31, the Response (chemodrug 300 nM + ATRi 10 nM) was 28.30 and the “Ratio (Response / Response vehicle (mean))” value (chemodrug 300 nM + ATRi 30 nM) was 0.27. For the same molecule, the Response (chemodrug 300 nM + ATRi 30 nM) was 23.96, the “Ratio (Response / Response vehicle (mean))” value [42] was 0.65 and the Response [42] was 58.52. The “Ratio (Response / Response vehicle (mean))” value (chemodrug 1000 nM + ATRi 10 nM) was 0.29, the Response (chemodrug 1000 nM + ATRi 10 nM) was 25.88 and the “Ratio (Response / Response vehicle (mean))” value (chemodrug 1000 nM + ATRi 30 nM) was 0.26. For the same molecule, the Response (chemodrug 1000 nM + ATRi 30 nM) was 23.54, the “Ratio (Response / Response vehicle (mean))” value [43] was 0.34 and the Response [43] was 30.70. For the same molecule, the “Ratio (Response / Response vehicle (mean))” value (chemodrug 3000 nM + ATRi 30 nM) was 0.23, the Response (chemodrug 3000 nM + ATRi 30 nM) was 20.88 and the “Ratio (Response / Response vehicle (mean))” value [44] was 0.29. The Response [44] was 26.17, the “sensitization of AsPC-1 cells to the chemodrug by Elimusertib” value (chemodrug + three sub-EC50 doses of Elimusertib) was “sensitized” and the EC50 (read-out: EC50 mean, Experiment GEM (no ATRi), mean of R1-R3, repeated in each replicate line) was 344 nM. The EC50 (read-out: EC50 mean, Experiment GEM+ATRi_dose1, mean of R1-R3, repeated in each replicate line) was 147 nM, the EC50 (read-out: EC50 mean, Experiment GEM+ATRi_dose2, mean of R1-R3, repeated in each replicate line) was 36.1 nM and the EC50 (read-out: EC50 mean, Experiment GEM+ATRi_dose3, mean of R1-R3, repeated in each replicate line) was 6.42 nM.
